Measurements: patent US20260258064A1 (SIRONAX LTD., priority 2023, published 2026)

biological target: T1, SARM1 (50-724) (Homo sapiens, UniProt Q6SZW1); test: SARM1 (50-724) enzymatic assay (LC-MS/MS); assay type: biochemical; settings: Purified SARM1 (50-724) 2 nM, NMN as activator, NAD+ as substrate, 1 h at room temperature, read-out: IC50 (SARM1 inhibitory activity)
T1 construct: Purified SARM1 (50-724) with a final concentration of 2 nM was pre-incubated with a test compound
T1 sequence (Q6SZW1 50-724): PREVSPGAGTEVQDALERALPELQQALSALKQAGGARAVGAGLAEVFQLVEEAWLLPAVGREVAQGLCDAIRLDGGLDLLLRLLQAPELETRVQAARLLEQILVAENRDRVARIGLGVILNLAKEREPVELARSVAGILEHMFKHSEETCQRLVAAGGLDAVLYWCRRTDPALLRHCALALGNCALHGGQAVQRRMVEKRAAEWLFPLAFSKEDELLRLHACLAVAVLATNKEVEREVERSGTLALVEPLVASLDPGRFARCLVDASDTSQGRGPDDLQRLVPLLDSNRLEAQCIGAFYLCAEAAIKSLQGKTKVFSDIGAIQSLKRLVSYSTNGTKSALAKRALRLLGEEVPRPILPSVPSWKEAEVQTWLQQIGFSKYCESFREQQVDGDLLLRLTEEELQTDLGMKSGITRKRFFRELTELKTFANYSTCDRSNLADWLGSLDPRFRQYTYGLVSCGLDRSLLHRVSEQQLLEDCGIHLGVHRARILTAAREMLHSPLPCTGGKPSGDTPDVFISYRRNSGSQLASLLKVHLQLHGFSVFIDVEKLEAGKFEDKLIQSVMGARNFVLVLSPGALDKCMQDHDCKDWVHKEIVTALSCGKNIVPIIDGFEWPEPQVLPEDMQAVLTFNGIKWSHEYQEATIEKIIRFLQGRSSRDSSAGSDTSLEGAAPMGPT
Summary of the method: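 Reaction buffer was Dulbecco's PBS. Compound and 2 nM human SARM1 (50-724) were pre-incubated 15 min at room temperature, then […] NAD^+ and 200 µM NMN activator were added for 1 h at room temperature. Acetonitrile (70%) stop, LC-MS/MS read-out, IC50 values.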

Compound	IC50
Cc1ccc2[nH]c(-c3c(-c4cccc(Cl)c4Cl)cnn3C)nc2c1 [Example 34]	> 1000 nM
Cc1ccc2[nH]c(C3CCCN3c3cccc(Cl)c3Cl)nc2c1 (stereo not shown) [Compound 13, 2-(1-(2,3-Dichlorophenyl)pyrrolidin-2-yl)-5-methyl-1H-benzo[d]imidazole]	> 1000 nM
[2H]C([2H])([2H])N(c1cc(F)c2[nH]c(-c3nncn3-c3cnccc3C(F)(F)F)nc2c1)C([2H])([2H])[2H] [Compound 403, 7-fluoro-N,N-bis(methyl-d3)-2-(4-(4-(trifluoromethyl)pyridin-3-yl)-4H-1,2,4-triazol-3-yl)-1H-benzo[d]imidazol-5-amine]	≤ 100 nM
O=S1(=O)Cc2ccc3[nH]c(-c4nncn4-c4cccc(F)c4Cl)nc3c2C1 [Compound 198, 2-(4-(2-chloro-3-fluorophenyl)-4H-1,2,4-triazol-3-yl)-6,8-dihydro-3H-thieno[3',4':3,4]benzo[1,2-d]imidazole 7,7-dioxide]	> 1000 nM
CC(c1cc(F)c2[nH]c(-c3nncn3-c3cnccc3C(F)(F)F)nc2c1)c1nccs1 (single isomer, unassigned) [Compound 433, 2-(1-(7-fluoro-2-(4-(4-(trifluoromethyl)pyridin-3-yl)-4H-1,2,4-triazol-3-yl)-1H-benzo[d]imidazol-5-yl)ethyl)thiazole]	≤ 100 nM
FC(F)(F)c1cnc2[nH]c(-c3nncn3-c3cnccc3C(F)(F)F)cc2n1 [Compound 356, 2-(trifluoromethyl)-6-(4-(4-(trifluoromethyl)pyridin-3-yl)-4H-1,2,4-triazol-3-yl)-5H-pyrrolo[2,3-b]pyrazine]	≤ 100 nM
OCCc1nnc(-c2nc3cc(C(F)(F)F)ccc3[nH]2)n1-c1cccc(Cl)c1Cl [Example 121, 2-(4-(2,3-Dichlorophenyl)-5-(5-(trifluoromethyl)-1H-benzo[d]imidazol-2-yl)-4H-1,2,4-triazol-3-yl)ethan-1-ol]	≤ 100 nM
Cn1cc(-c2ccc3[nH]c(-c4nncn4-c4cccc(Cl)c4Cl)nc3c2)cn1 [Example 79, 2-(4-(2,3-dichlorophenyl)-4H-1,2,4-triazol-3-yl)-5-(1-methyl-1H-pyrazol-4-yl)-1H-benzo[d]imidazole]	100 to 500 nM
COc1ccc(-c2cccc(Cl)c2Cl)c(-c2nc3cc(C(F)(F)F)ccc3[nH]2)n1 [Example 60]	> 1000 nM
FC(F)(F)c1ccc2[nH]c(-c3cncnc3-c3cccc(Cl)c3Cl)nc2c1 [Example 38]	100 to 500 nM
CC(c1cc(F)c2[nH]c(-c3nncn3-c3cnccc3C(F)(F)F)nc2c1)c1ncco1 (stereo not shown) [Compound 435, 2-(1-(7-fluoro-2-(4-(4-(trifluoromethyl)pyridin-3-yl)-4H-1,2,4-triazol-3-yl)-1H-benzo[d]imidazol-5-yl)ethyl)oxazole]	≤ 100 nM
CS(=O)(=O)Cc1nnc(-c2nc3c(F)c(C(F)(F)F)ccc3[nH]2)n1-c1cccc(F)c1Cl (racemic) [Compound 195, 2-(4-(2-chloro-3-fluorophenyl)-5-((methylsulfonyl)methyl)-4H-1,2,4-triazol-3-yl)-4-fluoro-5-(trifluoromethyl)-1H-benzo[d]imidazole]	≤ 100 nM
CC(C)(O)c1ccc2[nH]c(-c3nnccc3-c3cnccc3C(F)(F)F)nc2c1 [Compound 323]	≤ 100 nM
[O-][S+]1CCN(c2ccccc2)C(c2nc3cc(C(F)(F)F)ccc3[nH]2)C1 (stereo not shown) [Compound 325, 4-phenyl-3-(5-(trifluoromethyl)-1H-benzo[d]imidazole-2-yl)thiomorpholine 1-oxide]	> 1000 nM
CS(=O)(=O)Cc1c(-c2nncn2-c2cnccc2C(F)(F)F)[nH]c2ccc(C(F)(F)F)cc12 [Compound 385, 3-(methylsulfonylmethyl)-5-(trifluoromethyl)-2-[4-[4-(trifluoromethyl)-3-pyridyl]-1,2,4-triazol-3-yl]-1H-indole]	≤ 100 nM
Fc1cc(Oc2nccs2)cc2nc(-c3nncn3-c3cnccc3C(F)(F)F)[nH]c12 [Compound 446, 2-((7-fluoro-2-(4-(4-(trifluoromethyl)pyridin-3-yl)-4H-1,2,4-triazol-3-yl)-1H-benzo[d]imidazol-5-yl)oxy)thiazole]	100 to 500 nM
COc1cc(-c2ccccc2Cl)c(-c2nc3cc(C(F)(F)F)ccc3[nH]2)nn1 [Compound 405, 2-(4-(2-chlorophenyl)-6-methoxypyridazin-3-yl)-5-(trifluoromethyl)-1H-benzo[d]imidazole]	100 to 500 nM
Cc1cnn(-c2cc(F)c3[nH]c(-c4nncn4-c4cnccc4C(F)(F)F)nc3c2)c1 [Compound 400, 7-fluoro-5-(4-methyl-1H-pyrazol-1-yl)-2-(4-(4-(trifluoromethyl)pyridin-3-yl)-4H-1,2,4-triazol-3-yl)-1H-benzo[d]imidazole]	≤ 100 nM
Fc1cc(C(F)(F)F)cc2nc(-c3nncnc3-c3cnccc3C(F)(F)F)[nH]c12 [Compound 336, 7-fluoro-5-(trifluoromethyl)-2-(5-(4-(trifluoromethyl)pyridin-3-yl)-1,2,4-triazin-6-yl)-1H-benzo[d]imidazole]	≤ 100 nM
Fc1cc([C@@H]2[C@@H]3COC[C@@H]32)cc2nc(-c3nncn3-c3cnccc3C(F)(F)F)[nH]c12 (single isomer, unassigned) [Compound 349, 7-fluoro-5-(3-oxabicyclo[3.1.0]hexan-6-yl)-2-[4-[4-(trifluoromethyl)-3-pyridyl]-1,2,4-triazol-3-yl]-1H-benzimidazole]	≤ 100 nM
FC(F)(F)c1ccncc1-n1cnnc1-c1nc2cc(C34COC(C3)C4)ccc2[nH]1 [Compound 362, 5-(2-oxabicyclo[2.1.1]hexan-4-yl)-2-[4-[4-(trifluoromethyl)-3-pyridyl]-1,2,4-triazol-3-yl]-1H-benzimidazole]	100 to 500 nM

More lines, now with the values ahead:

IC50	Compound
≤ 100 nM	OCc1cc(-n2cnnc2-c2nc3cc(C(F)(F)F)ccc3[nH]2)c(OC(F)(F)F)cn1 [Compound 253, (5-(trifluoromethoxy)-4-(3-(5-(trifluoromethyl)-1H-benzo[d]imidazol-2-yl)-4H-1,2,4-triazol-4-yl)pyridin-2-yl)methanol]
> 1000 nM	FC(F)(F)Cc1ccccc1-n1cnnc1-c1nc2cc(C(F)(F)F)ccc2[nH]1 [Compound 248, 2-(4-(2-(2,2,2-trifluoroethyl)phenyl)-4H-1,2,4-triazol-3-yl)-5-(trifluoromethyl)-1H-benzo[d]imidazole]
≤ 100 nM	FC(F)(F)Oc1cnc(CC2COC2)cc1-n1cnnc1-c1nc2cc(C(F)(F)F)ccc2[nH]1 [Compound 262, 2-(4-(2-(oxetan-3-ylmethyl)-5-(trifluoromethoxy)pyridin-4-yl)-4H-1,2,4-triazol-3-yl)-5-(trifluoromethyl)-1H-benzo[d]imidazole]
100 to 500 nM	Cn1cc(Cl)c(-n2cnnc2-c2nc3cc(C(F)(F)F)ccc3[nH]2)cc1=O [Compound 173, 5-chloro-1-methyl-4-(3-(5-(trifluoromethyl)-1H-benzo[d]imidazol-2-yl)-4H-1,2,4-triazol-4-yl)pyridin-2(1H)-one]
≤ 100 nM	CC(C)(O)CCOc1ccc(OC(F)(F)F)c(-n2cnnc2-c2nc3cc(C(F)(F)F)ccc3[nH]2)n1 [Compound 256, 2-methyl-4-((5-(trifluoromethoxy)-6-(3-(5-(trifluoromethyl)-1H-benzo[d]imidazol-2-yl)-4H-1,2,4-triazol-4-yl)pyridin-2-yl)oxy)butan-2-ol]
≤ 100 nM	Cn1cc(OC(F)(F)F)c(-n2cnnc2-c2nc3cc(C(F)(F)F)ccc3[nH]2)cc1=S [Compound 242, 1-methyl-5-(trifluoromethoxy)-4-(3-(5-(trifluoromethyl)-1H-benzo[d]imidazol-2-yl)-4H-1,2,4-triazol-4-yl)pyridine-2(1H)-thione]
≤ 100 nM	OCCc1cc(-n2cnnc2-c2nc3cc(C(F)(F)F)ccc3[nH]2)c(OC(F)(F)F)cn1 [Compound 265]
≤ 100 nM	FC(F)(F)Oc1cnc(-n2cccn2)cc1-n1cnnc1-c1nc2cc(C(F)(F)F)ccc2[nH]1 [Compound 264, 2-(4-(2-(1H-pyrazol-1-yl)-5-(trifluoromethoxy)pyridin-4-yl)-4H-1,2,4-triazol-3-yl)-5-(trifluoromethyl)-1H-benzo[d]imidazole]
≤ 100 nM	FC(F)(F)c1ccc2[nH]c(-c3nncn3-c3c(C(F)(F)F)ccn4nccc34)nc2c1 [Compound 309, 5-(trifluoromethyl)-2-(4-(5-(trifluoromethyl)pyrazolo[1,5-a]pyridin-4-yl)-4H-1,2,4-triazol-3-yl)-1H-benzo[d]imidazole]
≤ 100 nM	CN(C)c1ccncc1-n1cnnc1-c1nc2cc(C(F)(F)F)ccc2[nH]1 [Compound 245, N,N-dimethyl-3-(3-(5-(trifluoromethyl)-1H-benzo[d]imidazol-2-yl)-4H-1,2,4-triazol-4-yl)pyridin-4-amine]
